Reference: the METLIN SMRT retention time set (Domingo-Almenara et al. 2019)

Test: gradient 5% acetonitrile 3 min, to 50% in 2 min, to 85% in 15 min, held 3 min, 100 µL/min
Settings: column: Zorbax Extend-C18 2.1 x 50 mm; eluents: water / acetonitrile, 0.1% formic acid
Outline: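 Pure standards were run in mixtures of ~100 molecules by HPLC coupled to a quadrupole time-of-flight mass spectrometer. The column was a Zorbax Extend-C18 (2.1 × 50 mm, 1.8 μm) at 100 μL/min, with water and acetonitrile each containing 0.1% formic acid, in positive and negative ionization mode. Dead and dwell volumes were 40 μL and 900 μL. Retention time was taken from computationally picked adduct peaks, each manually inspected, with data collected over 3 months.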

RP-LC retention time [s] | SMILES
862 | Cc1cc(C)cc(C(=O)NC2CCN(c3ccccc3)C2=O)c1 (stereo not drawn)
766 | COc1ccc(-c2c(C)noc2NC(C)=O)cc1S(=O)(=O)Nc1ccc(Cl)cc1
774 | CCn1cnc2ccc(-c3noc(Cc4ccc(Cl)cc4)n3)cc21
1140 | C=CCN1C(=O)COc2ccc(-c3nc(NC(=O)c4ccc(Cl)cc4)sc3C)cc21
599 | Cc1nc2ccccn2c(=O)c1Cc1nnc(SCc2cc(=O)c3cccc(C)c3[nH]2)n1C
874 | CCC(=O)N1c2ccc(S(=O)(=O)CCC(=O)NCCc3ccc(C)cc3)cc2CC1C (stereo not drawn)
920 | Cc1nc(-c2csc(S(=O)(=O)N3CCC(C(=O)Nc4ccc(F)cc4F)CC3)c2)no1
767 | Cc1cc(C(=O)N2CCN(C(=O)C3CC3c3cccs3)CC2)c(C)o1 (stereo not drawn)
608 | COc1cc([C@@H]2c3cc4c(cc3[C@H](O)[C@@H](CO)[C@@H]2C(=O)N2CCN(C(C)C)CC2)OCO4)cc(OC)c1OC
949 | Cc1ccc(Cl)cc1NC(=O)c1[nH]c(C)c(S(=O)(=O)N2CCCC2)c1C
1090 | Cc1[nH]nc(-c2c(C)sc(C)c2S(=O)(=O)NCC(C)c2ccccc2)c1C (stereo not drawn)
594 | NC(=O)c1cc[nH]c1C1CCCN(Cc2ccc(Br)o2)C1 (stereo not drawn)
769 | COC(=O)c1c(NCc2ccc(F)cc2F)c2cc(F)ccc2[nH]c1=O
878 | CC(C)NC(=O)c1c2c(cn(-c3ccccc3)c1=O)C(=O)CC(C)(C)C2
816 | CC(Oc1ccc(=O)n(-c2ccc(F)cc2)n1)C(=O)Nc1ccc(F)c(F)c1 (stereo not drawn)
622 | O=C(NCc1ccc(F)cc1)C1CCCN(c2ccc(-c3ccco3)nn2)C1 (stereo not drawn)
640 | CCCc1noc(-c2ccnc(-n3ncc(C(=O)NC4CCCC4)c3C)c2)n1
617 | O=C(Nc1ccccc1)c1nnc(CCC(=O)N2CCN(c3ccccn3)CC2)s1
704 | Cc1c(Cl)cccc1-c1ccc(CNCCc2ccc(S(N)(=O)=O)cc2)o1
1080 | CCOC(=O)c1noc2ncnc(Nc3cc(Cl)ccc3OC)c12
838 | Cc1cc(C)cc(NC(=O)C2CCN(S(=O)(=O)c3ccc(-c4noc(C5CC5)n4)cc3)CC2)c1
863 | CCOC(=O)c1c(C)[nH]c(C(=O)N2CCC(C(C)C(=O)NCc3ccc(F)cc3Cl)CC2)c1C (stereo not drawn)

RP-LC retention time [s] | SMILES
913 | Cc1cc(OCC(=O)Nc2ccnn2Cc2cccs2)ccc1Cl
736 | CCc1cc(=O)n(CC(=O)Nc2c(C)cccc2C)c(N2CCOCC2)n1
632 | Cc1ccc(S(=O)(=O)CCc2noc(C(=O)NCCCN3CCCC(C)C3)n2)cc1 (stereo not drawn)
728 | Cc1ccc(NC(=O)N2CCC(c3cc(N)on3)CC2)cc1C
922 | CCOc1ccc(N2CC(c3nc(-c4cccc(OC)c4OC)no3)CC2=O)cc1 (stereo not drawn)
614 | CN1CCN(C(CNC(=O)c2ccc3c(c2)OCO3)c2ccc3c(c2)OCO3)CC1 (stereo not drawn)
546 | Nc1cccc(-c2ccc(N3CCOCC3)nn2)c1
663 | Cn1cc(C(=O)N2CC(c3nc(CCOCC4CCOCC4)no3)C2)cn1
633 | CC1=C(c2ccc(Cl)cc2)S(=O)(=O)N=C1N1CCCN(C(=O)Cn2ccnc2)CC1
800 | O=S(=O)(NCc1cccnc1-c1ccc(F)cc1)c1cccc(Br)c1
769 | CC(C)n1cnc(S(=O)(=O)N2CCC(C(=O)N3CCc4ccccc43)CC2)c1
747 | Cc1ccc(Cn2c(CN3CCC(C(=O)NC(C)C)CC3)cc3ccccc32)cc1
730 | COc1ccc(CNC(=O)c2cn3ccc(C)cc3n2)c(OC)c1
934 | COc1ccc2c(c1)OC1(C)CC2C(S(=O)(=O)c2ccc(C)c(C)c2)C(=O)N1 (stereo not drawn)
618 | Cc1ccc(N2C(=O)CC(Nc3ccc(N4CCOCC4)cc3)C2=O)c(Br)c1 (stereo not drawn)
863 | CCn1ncn2cc(S(=O)(=O)Nc3ccccc3C)cc2c1=O
766 | Cc1noc(C2(NC(=O)c3ccccn3)CCCCC2)n1
746 | Cc1noc(-c2cccc(OC3CN(S(=O)(=O)c4cn(C)cn4)C3)c2)n1
638 | CN(CC1CCOC1)C(=O)Nc1c(F)cccc1F (stereo not drawn)
846 | O=C(COc1cccc2c1CCN(Cc1ccc(F)cc1)C2=O)Nc1ccc2c(c1)OCO2
942 | Cc1nn(CC(=O)N(C)Cc2ccccc2)c(=O)c2nc(-c3ccccc3)sc12
761 | CCc1nc2c(NC(=O)c3cccs3)cccn2n1

RP-LC retention time [s] | SMILES
617 | COc1ccc(N2CCN(C(=O)COc3nccc(C)n3)CC2)cc1
576 | COc1cccc2cc(C(=O)N3CCN(c4ccccn4)CC3)oc12
852 | Cc1nnc(-c2cc(C)n(CC(=O)Nc3ccc(C)c(Cl)c3)c2C)o1
882 | Cc1ccc(CCNC(=O)C2CCN(C(=O)c3sccc3-n3cccc3)CC2)cc1
718 | CCCNc1cc(N2CCC(CCC(=O)NCc3cccc(Cl)c3)CC2)ncn1
590 | CCOC(=O)c1[nH]c(C)c(CCC(=O)N2CCC(C(=O)NCCN3CCCCC3)CC2)c1C
875 | COC(=O)c1ccc(N2C=C(C#N)S(=O)(=O)c3ccc(F)cc32)cc1
707 | Cc1noc(COC2CCN(C(=O)c3ccc4ccccc4n3)CC2)n1
600 | Cc1ccc(C(=O)N2CCC(c3nc(C4CC4)n[nH]3)CC2)s1
581 | CC1=C(c2ccc(C)cc2)S(=O)(=O)N=C1N1CCCN(C(=O)C2CC2)CC1
716 | CCn1cc(CCNC(=O)c2ccccc2OC)c2cccnc21
1100 | Cc1cccc(-c2noc(Cn3ncn4nc(-c5cccs5)cc4c3=O)n2)c1
683 | COc1ccc(CCNC(=O)C2CCN(c3ncnc4c3oc3ccccc34)CC2)cc1OC
1040 | CC1CCN(c2cc(-n3cnc(C(=O)N4CCN(c5ccccc5)CC4)c3)ncn2)CC1
838 | O=C(O)c1cn(CCc2ccccc2)nc1S(=O)(=O)N1CCSCC1
1100 | CCc1nn2c(N3CCN(c4cccc(C)n4)CC3)cc(C)nc2c1-c1ccccc1
984 | CCOC(=O)c1c(S(=O)(=O)N2CCC(C(=O)Nc3cccc(CC)c3)CC2)c(C)n(CC)c1C
649 | CC(C)C[C@H](NC(=O)Cn1cnc2ccccc2c1=O)C(=O)O
913 | CCOC(=O)c1c(S(=O)(=O)N2CCC(C(=O)Nc3ccc(Cl)cc3)CC2)c(C)n(C)c1C
611 | COc1ccc(NC(=O)N2CCN(CCn3c(C(F)(F)F)nc4cccnc43)CC2)cc1OC
674 | CCN1CCN(Cc2nc(Cn3ccn4nc(-c5ccc(C)c(C)c5)cc4c3=O)no2)CC1
791 | COc1ccc2c(CCNC(=O)Nc3ccccc3)c[nH]c2c1

RP-LC retention time [s] | SMILES
724 | Brc1ccccc1Cc1nc(-c2ccc3nncn3c2)no1
618 | Cc1c(CCO)c(=O)n2n1CCCC2
568 | Cc1nc(C)c(C(=O)NCc2ccc3c(c2)ncn3C(C)C)s1
1050 | O=S(=O)(c1ccc2nc(N3CCN(c4ccc(F)cc4)CC3)ccc2c1)N1CCCCC1
666 | COCc1nc(N2CCN(c3ccc(OC)cc3)CC2)ncc1C(=O)O
958 | Cc1ccc(NC(=O)C2CCCN(c3ncnc4c3nc3n4CCCCC3)C2)cc1Cl (stereo not drawn)
648 | Cc1ccc(C)c(S(=O)(=O)N2CCC3(CC2)NCCCN=C3NC2CCCCC2)c1
576 | CC(=O)N1CCN(c2nc3c(s2)CC(C(=O)NCc2cc(C)ccc2C)CC3)CC1 (stereo not drawn)
610 | CCn1c(=O)sc2cc(S(=O)(=O)N3CCC(C(=O)NCc4cccnc4)CC3)ccc21
1120 | CCOC(=O)c1c(C)oc2ncnc(Nc3ccc4c(c3)OCCO4)c12
850 | CC(C)Cn1cc(CCNC(=O)c2cc3ccccc3[nH]2)c2cccnc21
780 | Fc1cc(F)cc(-c2nnc(Cc3nc(-c4ccncc4)no3)o2)c1
887 | COc1cc(OC)c(NC(=O)N2CCc3cn(C)c4cccc(c34)C2)cc1Cl
817 | O=C(Nc1cnn(-c2ncc(N3CCCC3)cn2)c1)c1ccccc1C(F)(F)F
854 | CC1=C(c2ccccc2)S(=O)(=O)N=C1N1CCCN(C(=O)CC(C)(C)C)CC1
639 | N#Cc1ccccc1NC(=O)c1ccc(N2C(=O)CCC2=O)cc1
792 | Cc1cc2c(cc1S(=O)(=O)N1CCCC1C(=O)NCCc1ccccc1)OC(C)C(=O)N2 (stereo not drawn)
876 | Cc1cccc(-n2c(N3CCCC(C(=O)NCc4cccs4)C3)nc3ccsc3c2=O)c1 (stereo not drawn)
606 | COc1ccccc1N1CCN(Cc2nc3nc(C)cc(N(C)C)n3n2)CC1
1020 | Cc1ccc(-c2nnc(-c3cccnc3N3CCN(C(=O)c4ccc(Br)o4)CC3)o2)cc1
666 | CC1CN(Cc2ccccc2)c2nc3c(c(=O)n(CCN4CCOCC4)c(=O)n3C)n2C1 (stereo not drawn)
626 | Cc1ccc(NC(=O)C2CCN(S(=O)(=O)c3cn(C(C)C)cn3)CC2)nc1
